Test results reported in patent publication US12662491B2 (Redona Therapeutics, Inc., priority 2020, dated 2026).

What follows are compounds tested against T1, Zcchc11 enzyme (Homo sapiens, UniProt Q5TAX3) (assay: TUTase assay (Zcchc11 assay, Lin28a-dependent polyuridylation of pre-let-7)). Details: LIN28A 10 nM, Zcchc11 0.2 nM, 5′-fluorescein pre-let-7 miRNA 2 nM, UTP 5 uM, room temperature, 30 minutes pre-incubation; read-out: Potency Lin28a-dep Z11 IC50.
T1 construct: made in house; host or cells: HEK293 cells (Zcchc11); E. coli Rosetta II (LIN28A)
T1 sequence (Q5TAX3 212-1420): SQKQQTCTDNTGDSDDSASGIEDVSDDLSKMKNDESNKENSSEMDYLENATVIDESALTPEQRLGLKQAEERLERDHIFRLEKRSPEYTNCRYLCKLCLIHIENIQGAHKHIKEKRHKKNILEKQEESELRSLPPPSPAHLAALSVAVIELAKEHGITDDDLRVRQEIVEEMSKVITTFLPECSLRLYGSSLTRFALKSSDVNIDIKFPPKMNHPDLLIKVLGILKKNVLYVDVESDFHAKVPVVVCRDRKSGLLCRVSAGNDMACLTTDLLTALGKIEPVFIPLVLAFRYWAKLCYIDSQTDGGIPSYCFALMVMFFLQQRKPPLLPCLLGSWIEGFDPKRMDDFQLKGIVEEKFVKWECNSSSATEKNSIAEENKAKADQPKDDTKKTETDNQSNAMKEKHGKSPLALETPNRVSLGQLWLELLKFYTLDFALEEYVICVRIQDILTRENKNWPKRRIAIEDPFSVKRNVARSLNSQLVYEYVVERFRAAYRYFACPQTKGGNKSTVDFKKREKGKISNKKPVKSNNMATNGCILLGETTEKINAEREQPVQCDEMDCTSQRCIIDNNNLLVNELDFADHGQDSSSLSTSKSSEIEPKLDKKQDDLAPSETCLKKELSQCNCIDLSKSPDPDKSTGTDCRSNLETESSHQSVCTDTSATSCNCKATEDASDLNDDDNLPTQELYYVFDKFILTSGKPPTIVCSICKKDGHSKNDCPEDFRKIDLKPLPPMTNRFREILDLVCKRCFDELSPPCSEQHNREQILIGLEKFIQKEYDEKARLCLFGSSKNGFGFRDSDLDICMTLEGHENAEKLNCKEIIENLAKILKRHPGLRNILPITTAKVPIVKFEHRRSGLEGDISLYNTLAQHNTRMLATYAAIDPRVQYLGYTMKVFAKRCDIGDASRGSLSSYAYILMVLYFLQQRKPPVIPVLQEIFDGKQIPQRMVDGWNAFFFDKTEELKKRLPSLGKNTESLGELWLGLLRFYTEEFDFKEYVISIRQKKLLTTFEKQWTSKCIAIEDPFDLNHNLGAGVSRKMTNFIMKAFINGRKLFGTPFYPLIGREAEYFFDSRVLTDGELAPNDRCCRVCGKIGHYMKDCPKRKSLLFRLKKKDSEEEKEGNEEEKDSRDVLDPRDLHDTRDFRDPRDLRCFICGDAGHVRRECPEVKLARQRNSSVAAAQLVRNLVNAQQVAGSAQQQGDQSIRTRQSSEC
Format: biochemical
Method in brief: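 Potency is measured as inhibition of LIN28A-driven U-tail addition to 2 nM pre-let-7 by 0.2 nM HEK293-derived Zcchc11 fragment with 5 uM UTP at room temperature. Tail growth appears as fluorescein quenching by an annealing rhodamine-A20 probe.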

| IC50 | Compound |
| --- | --- |
| ≤ 1 µM | CN(C)C1CN(c2ccc(-n3cc(C(=O)O)c(=O)c4cc(Cl)c(N5CC(C)(C)C[C@@H]5COc5ncccc5Cl)cc43)cn2)C1 [Example 58, 6-chloro-7-[(2R)-2-[[(3-chloropyridin-2-yl)oxy]methyl]-4,4-dimethylpyrrolidin-1-yl]-1-[6-[3-(dimethylamino)azetidin-1-yl]pyridin-3-yl]-4-oxoquinoline-3-carboxylic acid] |
| 10 to 50 µM | CN(C)CCN1CCC(n2cc(C(=O)O)c(=O)c3cc(Cl)c(N4CCC[C@@H]4COc4ncccc4Cl)cc32)C1 (stereo partly drawn) [Example 39, 6-chloro-7-[(2R)-2-{[(3-chloropyridin-2-yl)oxy]methyl}pyrrolidin-1-yl]-1-{1-[2-(dimethylamino)ethyl]pyrrolidin-3-yl}-4-oxo-1,4-dihydroquinoline-3-carboxylic acid] |

Same assay, conditions: Lin28a-dependent Zcchc11 (Z11) TUTase activity; read-out: Potency Lin28a-dep Z11 IC50

| IC50 | Compound |
| --- | --- |
| 1 to 10 µM | CC1(n2cc(C(=O)O)c(=O)c3cc(Cl)c(N4CCC[C@@H]4CN4CCc5cccnc54)cc32)CC1 [Compound 115, (R)-6-chloro-7-(2-((2,3-dihydro-1H-pyrrolo[2,3-b]pyridin-1-yl)methyl)pyrrolidin-1-yl)-1-(1-methylcyclo-propyl)-4-oxo-1,4-dihydro-quinoline-3-carboxylic acid] |
| ≤ 1 µM | CN(C)C1CN(c2ccc(-n3cc(C(=O)O)c(=O)c4cc(Cl)c(N5CCC[C@@H]5COc5nnccc5Cl)cc43)cn2)C1 [Compound 173, (R)-6-chloro-7-(2-(((4-chloro-pyridazin-3-yl)oxy)methyl)pyrrolidin-1-yl)-1-(6-(3-(dimethyl-amino)azetidin-1-yl)pyridin-3-yl)-4-oxo-1,4-dihydro-quinoline-3-carboxylic acid] |
| ≤ 1 µM | N#Cc1cccnc1OC[C@H]1CCCN1c1cc2c(cc1Cl)c(=O)c(C(=O)O)cn2-c1ccccc1 [Compound 110, (R)-6-chloro-7-(2-(((3-cyanopyridin-2-yl)oxy)methyl)pyrrolidin-1-yl)-4-oxo-1-phenyl-1,4-dihydro-quinoline-3-carboxylic acid] |
| ≤ 1 µM | COc1ccc(F)c(OC[C@H]2C[C@H]3C[C@H]3N2c2cc3c(cc2F)c(=O)c(C(=O)O)cn3-c2ccc(N(C)C)nc2)n1 [Compound 268, 1-(6-(dimethyl-amino)pyridin-3-yl)-6-fluoro-7-((1R,3R,5R)-3-(((3-fluoro-6-methoxy-pyridin-2-yl)oxy)methyl)-2-azabicyclo [3.1.0]hexan-2-yl)-4-oxo-1,4-dihydro-quinoline-3-carboxylic acid] |
| > 50 µM | CC(C)[C@H]1COC(=O)N1C[C@H]1CCCN1c1cc2c(cc1Cl)c(=O)c(C(=O)O)cn2C1(C)CC1 [Compound 140, 6-chloro-7-((R)-2-(((S)-4-isopropyl-2-oxooxazolidin-3-yl)methyl)pyrrolidin-1-yl)-1-(1-methylcyclo-propyl)-4-oxo-1,4-dihydro-quinoline-3-carboxylic acid] |
| ≤ 1 µM | CN(C)C1CN(c2ccc(-n3cc(C(=O)O)c(=O)c4cc(Cl)c(N5CCC[C@@H]5COc5ncc6nc[nH]c6c5Cl)cc43)cn2)C1 [Compound 255, 6-chloro-7-[(2R)-2-[({7-chloro-1H-imidazo [4,5-c]pyridin-6-yl}oxy)methyl]pyrrolidin-1-yl]-1-{6-[3-(dimethyl-amino)azetidin-1-yl]pyridin-3-yl}-4-oxoquinoline-3-carboxylic acid] |
| > 50 µM | O=C(O)c1cn2c3cc(c(F)cc3c1=O)N1CCC[C@@H]1COc1ncccc1OCCOc1ccc-2cc1 (racemic) [Compound 312, rac-(R)-26-fluoro-24-oxo-21,24-dihydro-5,7,10-trioxa-2(1,7)-quinolina-6(2,3)-pyridina-3(1,2)-pyrrolidina-1(1,4)-benzenacyclo-decaphane-23-carboxylic acid formic acid] |
| ≤ 1 µM | COc1ccc(Cl)c(OC[C@H]2CCCN2c2cc3c(cc2Cl)c(=O)c(C(=O)O)cn3-c2ccc(N3CC(N(C)C)C3)nc2)n1 [Compound 299, (R)-6-chloro-7-(2-(((3-chloro-6-methoxy-pyridin-2-yl)oxy)methyl)pyrrolidin-1-yl)-1-(6-(3-(dimethyl-amino)azetidin-1-yl)pyridin-3-yl)-4-oxo-1,4-dihydro-quinoline-3-carboxylic acid] |

Same assay, conditions: Lin28a-dependent Zcchc11 (Z11) TUTase assay; read-out: Potency Lin28a-dep Z11 IC50

| IC50 | Compound |
| --- | --- |
| 10 to 50 µM | O=C(O)c1cn(-c2cnccn2)c2cc(N3C[C@@H](F)C[C@H]3COc3ncccc3Cl)c(Cl)cc2c1=O [Example 468, 6-chloro-7-[(2S,4S)-2-{[(3-chloropyridin-2-yl)oxy]methyl}-4-fluoropyrrolidin-1-yl]-4-oxo-1-(pyrazin-2-yl)-1,4-dihydroquinoline-3-carboxylic acid] |
| ≤ 1 µM | CN(C)[C@H]1CCN(c2ccc(-n3cc(C(=O)O)c(=O)c4cc(C#N)c(N5CCC[C@@H]5COc5ncccc5Cl)cc43)cn2)C1 [Example 562, 7-((R)-2-(((3-chloropyridin-2-yl)oxy)methyl)pyrrolidin-1-yl)-6-cyano-1-(6-((S)-3-(dimethylamino)pyrrolidin-1-yl)pyridin-3-yl)-4-oxo-1,4-dihydroquinoline-3-carboxylic acid] |
| ≤ 1 µM | COc1ccc(Cl)c(OC[C@H]2C[C@H]3C[C@H]3N2c2nc3c(cc2Cl)c(=O)c(C(=O)O)cn3-c2ccc(N3CC(N(C)C)C3)nc2)n1 [Example 677, 6-chloro-7-((1R,3R,5R)-3-(((3-chloro-6-methoxypyridin-2-yl)oxy)methyl)-2-azabicyclo[3.1.0]hexan-2-yl)-1-(6-(3-(dimethylamino)azetidin-1-yl)pyridin-3-yl)-4-oxo-1,4-dihydro-1,8-naphthyridine-3-carboxylic aci] |
| 1 to 10 µM | O=C(O)c1cn(-c2cccc(F)c2F)c2cc(N3CCC[C@@H]3COc3ccccn3)c(F)cc2c1=O [Example 376, (R)-1-(2,3-difluorophenyl)-6-fluoro-4-oxo-7-(2-((pyridin-2-yloxy)methyl)pyrrolidin-1-yl)-1,4-dihydroquinoline-3-carboxylic acid] |
| ≤ 1 µM | CC(=O)Nc1ccc(-n2cc(C(=O)O)c(=O)c3cc(F)c(N4CCC[C@@H]4COc4ccccn4)cc32)cc1 [Example 370, (R)-1-(4-acetamidophenyl)-6-fluoro-4-oxo-7-(2-((pyridin-2-yloxy)methyl)pyrrolidin-1-yl)-1,4-dihydro-quinoline-3-carboxylic acid] |
| ≤ 1 µM | CN1CC2CN(c3ccc(-n4cc(C(=O)O)c(=O)c5cc(Cl)c(N6CCC[C@@H]6COc6ncccc6Cl)cc54)cn3)CC2C1 (stereo partly drawn) [Example 523, 6-chloro-7-((R)-2-(((3-chloropyridin-2-yl)oxy)methyl)pyrrolidin-1-yl)-1-(6-(5-methylhexahydro-pyrrolo[3,4-c]pyrrol-2(1H)-yl)pyridin-3-yl)-4-oxo-1,4-dihydroquinoline-3-carboxylic acid] |
| ≤ 1 µM | N#Cc1cc2c(=O)c(C(=O)O)cn(-c3cnccn3)c2cc1N1CCC[C@@H]1COc1ncccc1Cl [Example 538, (R)-7-(2-(((3-chloropyridin-2-yl)oxy)methyl)pyrrolidin-1-yl)-6-cyano-4-oxo-1-(pyrazin-2-yl)-1,4-dihydroquinoline-3-carboxylic acid] |
| ≤ 1 µM | COc1cnc(OC[C@H]2CC3CC3N2c2cc3c(cc2Cl)c(=O)c(C(=O)O)cn3-c2ccnc(N)c2)c(Cl)c1 (stereo partly drawn) [Example 653, 1-(2-aminopyridin-4-yl)-6-chloro-7-((3R)-3-(((3-chloro-5-methoxypyridin-2-yl)oxy)methyl)-2-azabicyclo[3.1.0]hexan-2-yl)-4-oxo-1,4-dihydroquinoline-3-carboxylic acid] |
| ≤ 1 µM | COc1ccnc(OC[C@H]2C[C@H]3C[C@H]3N2c2cc3c(cc2F)c(=O)c(C(=O)O)cn3-c2ccc(N3CC(N(C)C)C3)nc2)c1F [Example 686, 1-(6-(3-(dimethylamino)azetidin-1-yl)pyridin-3-yl)-6-fluoro-7-((1R,3R, 5R)-3-(((3-fluoro-4-methoxypyridin-2-yl)oxy)methyl)-2-azabicyclo[3.1.0]hexan-2-yl)-4-oxo-1,4-dihydroquinoline-3-carboxylic acid] |
